Experimental data taken from patent publication US20240190862A1 (AMGEN INC., priority 2019, published 2024).
Read-outs that look alike come from different tables or passages of the source.

Legend:
[1] = system: Phosphorylation of ERK1/2 in MIA PaCa-2 (G12C) cells; test: Phospho-ERK1/2 MSD Assay; format: cell-based; settings: Homo sapiens; 2 h compound treatment, MIA PaCa-2 cells; read-out: basal p-ERK 2 h MIA PaCa-2 (G12C) IC50 IP
Procedure: Phospho-ERK1/2 MSD Assay: MIA PaCa-2 (ATCC® CRL-1420™) cells were cultured in RPMI 1640 Medium (ThermoFisher Scientific 11875093) containing 1% fetal bovine serum (ThermoFisher Scientific 16000044) and 1× penicillin-streptomycin-glutamine (ThermoFisher Scientific 10378016). Sixteen hours prior to compound treatment, MIA PaCa-2 cells were seeded in 96-well cell culture plates at a density of 25,000 cells/well and incubated at 37° C., 5% C02. A compound dose-response titration was diluted in growth media, added to appropriate wells of a cell culture plate, and then incubated at 37° C., 5% C02 for 2 or 4 hours (see Table 15). Following compound treatment, cells were washed with ice-cold Dulbecco's phosphate-buffered saline, no Ca^2+or Mg^2+(ThermoFisher Scientific 14190144), and then lysed in RIPA buffer (50 mM Tris-HCl pH 7.5, 1% Igepal, 0.5% sodium deoxycholate, 150 mM NaCl, and 0.5% sodium dodecyl sulfate) containing protease inhibitors (Roche 4693132001) and phosphatase inhibitors (Roche 4906837001). Phosphorylation of ERK1/2 in compound-treated lysates was assayed using Phospho-ERK1/2 Whole Cell Lysate kits (Meso Scale Discovery K151DWD) according to the manufacturer's protocol. Assay plates were read on a Meso Scale Discovery Sector Imager 6000, and data were analyzed using a 4-parameter logistic model to calculate IC50 values.

GDP-KRAS G12D = GDP-KRAS G12D (Homo sapiens, UniProt P01116, C118A/G12D); test: GDP-KRAS G12D RF-MS Assay; format: binding; settings: 100 μM inhibitor, 20 h incubation, 2 uM KRAS G12D
Procedure: GDP-KRAS G12D RF-MS Assay: MS assays were performed in the following buffer: 25 mM HEPES pH 7.4, 20 mM MgCl2, 10 mM NaCl, 3% DMSO, 0.0005% CHAPS with 100 μM GDP made fresh and added to the assay buffer. The final concentration of KRAS G12D was 2 uM. Assay incubation times were 20 h and the inhibitor concentration was 100 μM. Greiner polypropylene clear V-bottom plates were used for the mass spectrometry assays. Typically, the reaction was initiated by addition of KRAS G12D to a well containing inhibitor followed by Rapidfire MS analysis. Relative % Bound values at the various incubation times were used to estimate a kobs value at 100 uM inhibitor.
RapidFire Sample Liquid handling System: The RapidFire liquid handling unit used was the RF 360 model. Solvents were delivered by Agilent 1260 Infinity pumps. The instrument control software was the Agilent RapidFire High Throughput MS-system software (v4.0.12333.14274). A single C4 Type A (Agilent technologies, G9203) SPE-cartridge was used for these experiments. A volume of 10 μL (sample loop determined) was removed from each well of a 384-well plate by using an aspiration time of 300 ms. The sample load/wash time was 6000 ms at a flow rate of 1.25 mL/min (H2O, 0.1% v/v formic acid, 0.05% v/v trifluoroacetic acid); elution time was 7000 ms (acetonitrile, 0.1% v/v formic acid, 0.05% v/v trifluoroacetic acid); re-equilibration time was 700 ms at a flow rate of 1.25 mL/min (H2O, 0.1% v/v formic acid, 0.05% v/v trifluoroacetic acid).
Mass Spectrometry: Mass spectrometric data was acquired on an Agilent 6530 quadrupole time-of-flight (ToF) MS system, operated with a dual Agilent Jet Spray (AJS) ion source, in positive ionization mode. The instrument parameters were as follows: gas temperature 350° C.; drying gas 5 L/min; nebulizer 60 psi; sheath gas 350° C.; sheath gas flow 11 L/min; capillary 3.5 kV (0.037 μA); nozzle 1.75 kV; fragmentor 200 V; skimmer 75 V; octapole RF 800 V peak-to-peak. Data was acquired at the rate of 5 spectra/s. The mass scale was calibrated using the Agilent positive ion tune mix, over the m/z range 300-3200. The instrument control software was Agilent MassHunter Workstation Data Acquisition (vB.05.01).
Mass Spectrometry Data Processing and Informatics: All data processing was performed using a HP Z620, 64-bit, 12-processor, Windows 7 PC, using a combination of Agilent MassHunter Qualitative Analysis (B.05.00) Agilent RapidFire control software (v4.0.12333.14070) and the Agilent DA Reprocessor Offline Utilities B.05.00, Build 162. The SPE-MS data acquired from the RapidFire-MS system is typically a single SPE-MS data file composed of multiple injection events. For effective charge state extraction, SPE-peak integration and subsequent MS-spectral deconvolution, the single SPE-MS data file is split into single injection events. This is typically performed off-line and achieved through the RapidFire User Interface software, using the Agilent RapidFire control software (v4.0.12333.14070) using the Convert MS Data option. Once the individual injection-event MS-data files have been produced, they are all batch processed using the DA Reprocessor Offline Utilities (B.05.00, Build 162, Agilent). For batch processing a method file was created using Agilent MassHunter Qualitative Analysis B.05.00. The details of this method file are contained within the BioConfirm Workflow and are as follows: Integrate (MS), Integrator Selection: General, smooth option selected; detector point sampling 1; start threshold 5.0; stop threshold 0.0; filtering 5 point; peak location, top. Extract (MS): Peak Spectrum Extraction (MS) within m/z 800-1400. Deconvolute (MS) Maximum Entropy: mass range 19,000-21,000 Daltons; Mass step 1.0 Da; S/N threshold 20.0; Use limited m/z range 800-1400; adduct proton; isotope peak width automatic; minimum consecutive charge states 5. […]

[2] = molecular target: GDP-bound KRAS protein (aa 1-169) G12C/C118A (Homo sapiens (Human), UniProt P01116, C118A/G12C); test: Coupled Nucleotide Exchange Assay (KRAS G12C); format: biochemical
Chain of GDP-bound KRAS protein (aa 1-169) G12C/C118A (P01116 other isoform, or with tags, fused parts or gaps G12C/C118A): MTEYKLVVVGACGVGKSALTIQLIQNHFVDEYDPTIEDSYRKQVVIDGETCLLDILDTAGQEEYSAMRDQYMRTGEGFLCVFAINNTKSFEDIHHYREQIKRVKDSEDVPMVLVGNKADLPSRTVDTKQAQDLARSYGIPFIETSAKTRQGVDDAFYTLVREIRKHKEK
Procedure: (§1) Coupled Nucleotide Exchange Assay: Purified GDP-bound KRAS protein (aa 1-169), containing either G12C or G12D, as well as C118A amino acid substitutions and an N-terminal His-tag, was pre-incubated in assay buffer (25 mM HEPES pH 7.4, 10 mM MgCl2, and 0.01% Triton X-100) with a compound dose-response titration for either 5 min or 20 hours (see Table 15). Following compound pre-incubation, purified SOS protein (aa 564-1049) and GTP (Roche 10106399001) were added to the assay wells and incubated for an additional 30 min. To determine the extent of inhibition of SOS-mediated nucleotide exchange, purified GST-tagged cRAF (aa 1-149), nickel chelate AlphaLISA acceptor beads (PerkinElmer AL108R), and AlphaScreen glutathione donor beads (PerkinElmer 6765302) were added to the assay wells and incubated for 10 minutes. The assay plates were then read on a PerkinElmer EnVision Multilabel Reader, using AlphaScreen® technology, and data were analyzed using a 4-parameter logistic model to calculate IC50 values.

[3] = molecular target: GDP-bound KRAS protein (aa 1-169) G12D/C118A (Homo sapiens (Human), UniProt P01116, C118A/G12D); test: Coupled Nucleotide Exchange Assay (KRAS G12D); format: biochemical; settings: 20 h compound pre-incubation; read-out: GDP KRAS G12D 20 h Coupled Exchange IC50 IP
Chain of GDP-bound KRAS protein (aa 1-169) G12D/C118A (P01116 other isoform, or with tags, fused parts or gaps G12D/C118A): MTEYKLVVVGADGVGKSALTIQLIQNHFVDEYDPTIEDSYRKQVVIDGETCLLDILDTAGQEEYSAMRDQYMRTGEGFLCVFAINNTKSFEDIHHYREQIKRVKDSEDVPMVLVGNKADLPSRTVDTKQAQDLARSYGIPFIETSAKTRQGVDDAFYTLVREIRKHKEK
Procedure: as §1

[4] = 5 min compound pre-incubation, read-out: GDP KRAS G12C 5 min Coupled Exchange IC50 IP
[5] = 20 h compound pre-incubation, read-out: GDP KRAS G12C 20 h Coupled Exchange IC50 IP

With `Cc1ccnc(C(C)C)c1-n1c(=O)nc(N2CCN(C(=O)C=O)C[C@@H]2C)c2cc(Cl)c(-c3ccccc3F)nc21` [Example 4, (S)-2-(4-(6-chloro-7-(2-fluorophenyl)-1-(2-isopropyl-4-methylpyridin-3-yl)-2-oxo-1,2-dihydropyrido[2,3-d]pyrimidin-4-yl)-3-methylpiperazin-1-yl)-2-oxoacetaldehyde] the IC50 [1] was 0.711 µM.

`CCOC(=O)[C@@H]1O[C@H]1C(=O)N1CCN(c2nc(=O)n(-c3c(C)ccnc3C(C)C)c3nc(-c4ccccc4F)c(Cl)cc23)[C@@H](C)C1` [Example 19, Ethyl (2R,3R)-3-((S)-4-(6-chloro-7-(2-fluorophenyl)-1-(2-isopropyl-4-methylpyridin-3-yl)-2-oxo-1,2-dihydropyrido[2,3-d]pyrimidin-4-yl)-3-methylpiperazine-1-carbonyl)oxirane-2-carboxylate] was tested, and the “GDP-KRAS G12D RF-MS 100 μM 20 h Relative % Bound” value (GDP-KRAS G12D) was 3.4%, the IC50 [2, 4] was 0.216 µM and the IC50 [2, 5] was 0.005 µM. The IC50 [1] was 0.096 µM and the IC50 [3] was greater than 250 µM.

For `COC(=O)/C=C/C(=O)N1CCN(c2nc(=O)n(-c3c(C)ccnc3C(C)C)c3nc(-c4ccccc4F)c(Cl)cc23)[C@@H](C)C1` [Example 5, Methyl (S,E)-4-(4-(6-chloro-7-(2-fluorophenyl)-1-(2-isopropyl-4-methylpyridin-3-yl)-2-oxo-1,2-dihydropyrido[2,3-d]pyrimidin-4-yl)-3-methylpiperazin-1-yl)-4-oxobut-2-enoate], the IC50 [2, 4] was 0.095 µM, the IC50 [2, 5] was 0.026 µM and the IC50 [1] was 0.061 µM. It also gave an IC50 [3] greater than 250 µM.
